In article PMC8279484 (Journal of Medicinal Chemistry, 2021):
Where “and” joins values, the source holds several entries; their conditions need not be identical. Identical values can stand only once.

What was measured:
THP-1 LUCIA monocytes = assay: Intrinsic cytotoxicity: LDH release without LPS; format: cell-based, human; conditions: for Intrinsic Toxicity Level: LDH-associated level of cytotoxicity (high / moderate / low); for intrinsic LDH release versus vehicle / spontaneous cell release: absence of LPS, 24 h, controls Dex 1 μM, 2 1 pM, 5 1 pM; for Intrinsic Toxicity TC50 (pM): half-maximal intrinsic LDH-associated toxic activity, no LPS
In short: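 THP-1-Lucia NF-κB cells exposed 24 h to compounds, vehicle or controls, then LPS-stimulated for extrinsic, unstimulated for intrinsic. Supernatant LDH read at 490 nm minus 690 nm, relative to vehicle; maximum release from 2% Triton-X-100 lysis, spontaneous release from untreated cells; LPS response set to 100%.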

THP-1-MF0 macrophage = assay: Phagocytosis of fluorescent E. coli bioparticles by THP-1-MF0 macrophages; format: cell-based, human; conditions: for EC50: Homo sapiens, Macrophage, 30 min pretreatment, read-out: Potency EC50; for EC50 / Efficacy Emax (%): 2 h bioparticles; for Efficacy Emax (%): 30 min pretreatment 1 fM–1 μM, figure expresses fold change
Protocol: Mycoplasma-free THP-1 monocytes were grown in an RPMI 1640 (Gibco) medium containing 2 mM L-glutamine, 2.00 g/L sodium bicarbonate, and 2.00 g/L glucose. Then, 10% (v/v) heat-inactivated FBS (30 min at 56 °C) and Pen-Strep (100 U/mL to 100 μg/mL) were supplemented to the growth media.
Cell adherence was allowed for 1 h and 30 min at 37 °C/5% CO2. Cells were then treated for 30 min with controls and phagocytosis effectors for testing (vehicle, LXs, Rvs, or sLXms). Subsequently, media containing controls/effectors were vacuum-aspirated and replaced with a solution containing fluorescently prelabeled E. coli-derived bioparticles and cells were incubated in the dark for 2 h at 37 °C/5% CO2 to allow particle ingestion by monocytes/macrophages. After that, media containing bioparticles were vacuum-aspirated and replaced with a solution containing trypan blue and cells were incubated for 1 min at room temperature to allow quenching of unbound particles to ensure specificity of the fluorescent signal, deriving only from ingested particles (not shown). After aspiration of Trypan, the fluorescence reading was immediately performed at the following conditions: end point; reading from the bottom of the plate; Ex.480/Em.520 nm.

ALX/FPR2 receptor = molecular target: T1, ALX/FPR2 receptor (Homo sapiens, UniProt P25090); assay: Intracellular calcium flux in FPR2+/Gαq+ stably transfected HEK-293; format: cell-based; conditions: for Emax: HEK293, % delta calcium signal relative to peak of full agonist (1), 10 pM–100 nM, read-out: Efficacy Emax (%)
T1 construct: host or cells: HEK-293, stably double-transfected FPR2+/Gαq+
T1 sequence (P25090 1-351): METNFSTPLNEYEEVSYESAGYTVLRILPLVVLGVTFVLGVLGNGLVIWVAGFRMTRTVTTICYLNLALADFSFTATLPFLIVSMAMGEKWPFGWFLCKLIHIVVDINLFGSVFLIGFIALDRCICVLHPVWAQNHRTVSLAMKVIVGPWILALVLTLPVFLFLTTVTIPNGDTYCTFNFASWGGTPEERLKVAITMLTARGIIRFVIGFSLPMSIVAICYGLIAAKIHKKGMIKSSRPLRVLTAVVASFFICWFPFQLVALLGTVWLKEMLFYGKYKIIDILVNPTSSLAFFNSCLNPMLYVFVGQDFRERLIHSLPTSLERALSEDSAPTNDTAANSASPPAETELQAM
Protocol: HEK-293-transfected and wt cell lines were cultured in Dulbecco’s modified Eagle’s medium (DMEM Glutamax, 4 mM L-glu and 4.50 g/L glucose—Gibco, Ireland) supplemented with heat-inactivated (30 min at 56C) 10% (v/v) FBS (Invitrogen, U.K.), 50 U penicillin, and 50 μg of streptomycin (Invitrogen, U.K.). As stably double-transfected FPR2^+/Gαq^+ HEK-293 cells were resistant to Geneticin and Hygromycin, these were used as selective antibiotics (500 and 100 μg/mL, respectively) to maintain the stable double transfection with the ALX/FPR2 receptor and the Gαq subunit coupled to it. Immediately prior to calcium measurement, fluorescently labeled cells were treated with 10^–11/–9/–7M LXA41 or sLXms using an injection system coupled to the fluorescence reader.
To explore the mechanism of action through which the sLXm lead compound exerts the effects seen here, its interaction with the ALX/FPR2 receptor was investigated and agonist-induced intracellular calcium transients were measured using an engineered cell line stably overexpressing the ALX/FPR2 receptor and the Gαq subunit coupled to it (Figure S6). Wild-type HEK cells were used as controls, to verify the specificity of the agonism toward ALX/FPR2, as previously reported.[36] Briefly, prior to cell plating, sterile 96-well plates (black-sided with optically clear glass flat bottoms) were PDL-coated overnight. Subsequently, 2 × 10^5 wild-type cells and overexpressed cells/well were cultured for 18 h in DMEM complete media (containing Ca^2+ and Mg^2+) to facilitate adherence prior to labeling with Fluo-4 dye. After 1 h of incubation at 37 °C with Fluo-4, cells were gently washed twice and placed in 100% Hanks’ balanced salt solution (HBSS; 37 °C) before reading the fluorescence (485/535 nm), using a spectrophotometer conjugated with an injection system (Clariostar BMG LABTECH plate reader), allowing addition to the cells of controls ([…], 2 nM Wp, a synthetic ALX/FPR2 agonist) or experimental treatments [10 pM, 1 nM, and 100 nM LXA41 or (R)-6].
During calcium flux measurement, the kinetic steps involved were the following: the baseline fluorescent signal was measured for 20 s, followed by 100 s immediately after agonist injection. Subsequently, 2% Triton-X-100 was added to lyse the cells (monitoring for 20 s the maximal release of calcium ions in the extracellular environment) and, finally, 25 mM tetraacetic acid (EGTA) was added to chelate calcium ions (monitoring for additional 20 s the minimal detection of calcium ions in the extracellular environment) (Figure S7).
The “coding” of the heat-map indicates the arbitrary criteria to assign points to each single PD component (efficacy = Imax or Emax; potency = IC50 or EC50; slope = HS) to generate a final (aggregate) relative PD score. If a single PD component was greater than the reference level (x > 1), then the single-component relative score was arbitrarily set to +1 (light green) or +2 (dark green). If a single PD component was equal to the reference level (x = 1), then the single-component relative score was arbitrarily set to 0 (gray). If a single PD component was smaller than the reference level (x < 1), then the single-component relative score was arbitrarily set to −1 (light red) or −2 (dark red). If the curve of a single PD component was best fitting to a flat line (x = 0), then the single-component relative score was arbitrarily set to −4 (purple) (Table S1).

EC50 (THP-1-MF0 macrophage) [pM] | Slope HS (ALX/FPR2 receptor) | type of agonism at ALX/FPR2 (ALX/FPR2 receptor) | ALX/FPR2 activation lower than that induced by native LXA4 (ALX/FPR2 receptor; both at 10 pM) [%] | (Single component) Rel. Score: Rel. Eff. (ALX/FPR2 receptor; relative to LXA4 (1)) | (Single component) Rel. Score: Rel. Sl. (ALX/FPR2 receptor; relative to LXA4 (1)) | Efficacy Rel. Eff. (ALX/FPR2 receptor; relative to LXA4 (1)) | Potency Rel. Pot. (ALX/FPR2 receptor; relative to LXA4 (1)) | Rel. Slope (ALX/FPR2 receptor; relative to LXA4 (1)) | Emax (ALX/FPR2 receptor) [%] | (Aggregate) Rel. PD Score (ALX/FPR2 receptor; relative to LXA4 (1)) | SMILES | Intrinsic Toxicity Level (THP-1 LUCIA monocytes) | intrinsic LDH release versus vehicle / spontaneous cell release (THP-1 LUCIA monocytes) | Intrinsic Toxicity TC50 (pM) (THP-1 LUCIA monocytes) | Potency Rel. Pot. (THP-1-MF0 macrophage; relative to LXA4 (1)) | Single comp. score Rel. Pot. (THP-1-MF0 macrophage; relative to LXA4 (1)) | Efficacy Emax (%) (THP-1-MF0 macrophage) | concentration of peak phagocytosis (THP-1-MF0 macrophage; back to baseline at 1 μM) [nM] | increase of phagocytosis (THP-1-MF0 macrophage; concentration-dependent, at peak) [fold] | Efficacy Rel. Eff. (THP-1-MF0 macrophage; relative to LXA4 (1))
50 | 220 | equipotent partial agonist | 40 | -2 | 1 (1 < x < 10) | 0.61 | 1 | 1.46 |  |  | CCCCC[C@@H](O)c1nc2ccccc2nc1/C=C/[C@@H](O)[C@@H](O)CCCC(=O)OC [(R)-6, Methyl (5S,6R,E)-5,6-Dihydroxy-8-(3-((R)-1-hydroxyhexyl)quinoxalin-2-yl)oct-7-enoate] | Low and low cytotoxicity | lower than the vehicle | 500 | 100 | 2 (x ≥ 5) |  |  |  | 
 | 150 | full agonist |  |  |  | 1 | 1 | 1 | 100 |  | CCCCC[C@H](O)/C=C/C=C\C=C\C=C\[C@@H](O)[C@@H](O)CCCC(=O)O [Compound 1, LXA4] |  |  |  | 1 |  | 4.2 ± 0.5% and 4.2 ± 2% | 100 | 4 | 0
10 | 258 |  |  |  | 2 (x ≥ 10) | 0.99 | 1 | 1.72 | 99 ± 17 | 2 | CCCCC[C@@H](O)c1c(/C=C/[C@@H](O)[C@@H](O)CCCC(=O)OC)nc(C)n1C [Compound 5, imidazolo-LXA4] |  | did not display any significant cytotoxic effect |  | 500 | 2 (x ≥ 5) | 4.2 ± 0.7% |  |  | 

More lines, now with the values behind:

SMILES | EC50 (THP-1-MF0 macrophage) [pM] | Slope HS (ALX/FPR2 receptor) | type of agonism at ALX/FPR2 (ALX/FPR2 receptor) | ALX/FPR2 activation lower than that induced by native LXA4 (ALX/FPR2 receptor; both at 10 pM) [%] | (Single component) Rel. Score: Rel. Eff. (ALX/FPR2 receptor; relative to LXA4 (1)) | (Single component) Rel. Score: Rel. Sl. (ALX/FPR2 receptor; relative to LXA4 (1)) | Efficacy Rel. Eff. (ALX/FPR2 receptor; relative to LXA4 (1)) | Potency Rel. Pot. (ALX/FPR2 receptor; relative to LXA4 (1)) | Rel. Slope (ALX/FPR2 receptor; relative to LXA4 (1)) | Emax (ALX/FPR2 receptor) [%] | (Aggregate) Rel. PD Score (ALX/FPR2 receptor; relative to LXA4 (1)) | Intrinsic Toxicity Level (THP-1 LUCIA monocytes) | intrinsic LDH release versus vehicle / spontaneous cell release (THP-1 LUCIA monocytes) | Intrinsic Toxicity TC50 (pM) (THP-1 LUCIA monocytes) | Potency Rel. Pot. (THP-1-MF0 macrophage; relative to LXA4 (1)) | Single comp. score Rel. Pot. (THP-1-MF0 macrophage; relative to LXA4 (1)) | Efficacy Emax (%) (THP-1-MF0 macrophage) | concentration of peak phagocytosis (THP-1-MF0 macrophage; back to baseline at 1 μM) [nM] | increase of phagocytosis (THP-1-MF0 macrophage; concentration-dependent, at peak) [fold] | Efficacy Rel. Eff. (THP-1-MF0 macrophage; relative to LXA4 (1))
CCCCC[C@@H](O)c1nc2ccccc2nc1/C=C/[C@H]1OC(C)(C)O[C@H]1CCCC(=O)OC [(R)-17, Methyl 4-((4S,5R)-5-((E)-2-(3-((R)-1-Hydroxyhexyl)quinoxalin-2-yl)vinyl)-2,2-dimethyl-1,3-dioxolan-4-yl)butanoate] |  |  |  |  |  |  |  |  |  |  |  |  |  | 100 |  |  |  |  |  | 
CCCCCCC[C@H](O)c1nc2ccccc2nc1/C=C/[C@@H](O)[C@@H](O)CCCC(=O)OC [(S)-8, Methyl (5S,6R,E)-5,6-Dihydroxy-8-(3-((S)-1-hydroxyoctyl)quinoxalin-2-yl)oct-7-enoate] |  |  |  |  |  |  |  |  |  |  |  | Low | lower than the vehicle | 100 |  |  |  |  |  | 
